Source: patent publication US8163960B2, “Process for preparing and drying solid rasagiline base” (Teva Pharmaceutical Industries, Ltd., priority 2008, dated 2012)
In brackets after ≈: the same amount, converted by molar mass. Where a name gives a salt, the structure may show the parent alone. Read-outs that look alike come from different tables or passages of the source.

Legend:
[1] = Stability test for wet Rasagiline Tartrate Pure; assay type: physicochemical; conditions: for L.O.D.: samples dried prior to analysis; for Description: wet with isopropanol and water; for Description / Chromatographic purity by HPLC: 1-Aminoindan / Chromatographic purity by HPLC: Any other / ID by HPLC / S-isomer by HPLC: RT, polyethylene bag; for Chromatographic purity by HPLC: 1-Aminoindan / Chromatographic purity by HPLC: Any other / ID by HPLC / S-isomer by HPLC: wet
Description: Rasagiline Tartrate Pure wet with isopropanol and water was stored at ambient temperature (RT) in polyethylene bag. The solid was sampled, dried to constant weight and analyzed.

[2] = 48 hrs in air; 7-8° C. or ambient temperature
Protocol: Two batches of Rasagiline base were prepared in order to simulate the storage of Rasagiline base in ethanol solution at different temperatures.
17.0 g of Rasagiline base oil was dissolved in 17 g absolute ethanol. The resulting solution was introduced into refrigerator and stored at 7-8° C. for 48 hrs. The ethanol solution was sampled (sample 1).
The reactor was cooled (Tj=11° C.) and 8 g of water was introduced at stirring. Then the solution was seeded with solid Rasagiline base and crystallization was observed. The batch was stirred for 15 min at 11-12° C. and then 33.8 g of water was added. The resulting suspension was cooled to 4° C. and stirred at 1-4° C. for 30 min. The solid was filtered and washed twice with 17 ml water. Wet solid product (17.6 g) was dried under vacuum.
17.0 g of Rasagiline base oil was dissolved in 17 g absolute ethanol. The resulting solution was stored at ambient temperature (20-28° C.) for 48 hrs. The ethanol solution was sampled (sample 1).
The reactor was cooled (Tj=11° C.) and 8 g of water was introduced at stirring. Then the solution was seeded with solid Rasagiline base and crystallization was observed. The batch was stirred for 20 min at 11-12° C. and then 33.8 g water was added. The resulting suspension was cooled to 4° C. and stirred at 1-4° C. for 30 min. The batch was filtered and washed twice with 17 ml water. […]

[3] = Protocol: Approximately four (4) grams of rasagiline base was introduced into the sublimation reservoir of a standard Sigma-Aldrich glass sublimation apparatus, (Cat. No. Z221171-1EA) with internal diameter of 3 cm. The apparatus was equipped with vacuum pump, vacuumeter and circulating ice-water bath for cooling of the apparatus' sublimation head. The apparatus was then closed and circulation of coolant at 0 to 1° C. was started. The vacuum was then built to a pressure (“P”) of 2-3 mbar and the reservoir was introduced into thermostatic water bath maintained at temperature (“T”) of 21° C.
The process was controlled by visual observation of the sublimed solid forming on the sublimation head. After sublimation completed the operation time was recorded, the apparatus was opened and the sublimed solid was removed from the head and weighed.
The mean sublimation rate was calculated as follows:
Mean Sublimation Rate Rs1: Rs1=m/M·t [gg^−1hr^−1]
Mean Sublimation Rate Rs2: Rs2=m/S·t [gm^−2hr^−1]
Mean Relative Sublimation Rate R: R=m·100/M·t [%/hr] m—mass of sublimed material, g M—mass of starting material, g t=sublimation time, hrs S=sublimation area (apparatus section area), m^2

[4] = alcohols, acetone, ethyl acetate, toluene, diethyl ether, dioxane, hexane and n-heptane
physchem = conditions: 25 °C
[5] = for Description: wet with water, RT, protected from light
Protocol: Rasagiline Base wet with water produced in Example […] was stored at ambient temperature (RT) in polyethylene bag inside aluminium laminate bag protected from light. The solid was sampled, dried to constant weight under vacuum and analyzed. The sampling and analysis were performed at time zero, than after 2 weeks and 4 weeks from zero time.

[6] = low levels of volatiles by KF and TGA
[7] = Stability test for dried Rasagiline Tartrate Pure; assay type: physicochemical; conditions: for Chromatographic purity by HPLC: 1-Aminoindan / Chromatographic purity by HPLC: Any other / Description / ID by HPLC / L.O.D. / S-isomer by HPLC: RT, polyethylene bag
Description: A batch of dry Rasagiline Tartrate Pure produced in Example ?? was stored at ambient temperature (RT) in polyethylene bag. The solid was sampled and analyzed at time zero, than after 2 weeks and 4 weeks from time zero.

[8] = Ex. 12, solid, 2-3 mbar, 21 °C, 8.0 hr
[9] = Ex. 13, solid, 2-3 mbar, 35 °C, 5.33 hr
[10] = Ex. 14, melt, 2-3 mbar, 60 °C, 4.0 hr
[11] = Ex. 15, solid, 20 mbar, 21 °C, 8.5 hr
[12] = Ex. 16, solid, 40 mbar, 21 °C, 8.5 hr
[13] = Ex. 17, solid, 40 mbar, 35 °C, 5.33 hr
[14] = Ex. 18, solid, 20 mbar, 35 °C, 5.33 hr
[15] = Ex. 19, melt, 40 mbar, 60 °C, 5.33 hr
[16] = Ex. 20, melt, 20 mbar, 60 °C, 5.33 hr
[17] = Ex. 21, oil, 20 mbar, 22 °C, 8.0 hr
[18] = Ex. 22, oil, 20 mbar, 35 °C, 5.33 hr
[19] = Ex. 23, oil, 2-3 mbar, 22 °C, 3.0 hr
[20] = Ex. 24, oil, 2-3 mbar, 60 °C, 1.3 hr

## C#CCN[C@@H]1CCc2ccccc21.C#CCN[C@@H]1CCc2ccccc21.O=C(O)C(O)C(O)C(=O)O [Wet RB-2087]
[1]; Storage temperature R.T.
  Time limitation: One month
[1]; 2 weeks
  L.O.D.: 0.05%
  Description: White
  Chromatographic purity by HPLC: 1-Aminoindan: L.T. 0.03%
  Chromatographic purity by HPLC: Any other: L.T. 0.03%
  ID by HPLC: Conforms
  S-isomer by HPLC: L.T. 0.3%
[1]; 4 weeks
  L.O.D.: 0.04%
  Description: White
  Chromatographic purity by HPLC: 1-Aminoindan: L.T. 0.03%
  Chromatographic purity by HPLC: Any other: L.T. 0.03%
  ID by HPLC: Conforms
  S-isomer by HPLC: L.T. 0.3%
[1]; Start (t = 0)
  L.O.D.: 0.01%
  Description: White
  Chromatographic purity by HPLC: 1-Aminoindan: L.T. 0.03%
  Chromatographic purity by HPLC: Any other: L.T. 0.03%
  ID by HPLC: Conforms
  S-isomer by HPLC: L.T. 0.3%

## C#CCN[C@@H]1CCc2ccccc21 [rasagiline base, R(+)-N-propargyl-1-aminoindan]
[2]
  effect of holding as ethanol solution on yield and quality of solid product: do not affect the yield and quality of solid product
[3]; [8]
  Mean relative sublimation rate R: 0.0312 %/hr
  Mean sublimation rate Rs1: 3.12e-05 g/g/h
  Mean sublimation rate Rs2: 1.333 g/hr/m^2
  Sublimed solid fraction: 0.25%
  −log Rs1: 4.5
[3]; [9]
  Mean relative sublimation rate R: 0.116 %/hr
  Mean sublimation rate Rs1: 0.00117 g/g/h
  Mean sublimation rate Rs2: 4.978 g/hr/m^2
  Sublimed solid fraction: 0.62%
  −log Rs1: 2.93
[3]; [10]
  Mean relative sublimation rate R: 5.6 %/hr
  Mean sublimation rate Rs1: 0.0562 g/g/h
  Mean sublimation rate Rs2: 236.19 g/hr/m^2
  Sublimed solid fraction: 22.4%
  −log Rs1: 1.25
[3]; [11]
  Mean relative sublimation rate R: 0.0 %/hr
  Mean sublimation rate Rs1: 0.0 g/g/h
  Mean sublimation rate Rs2: 0.0 g/hr/m^2
  Sublimed solid fraction: 0.0%
[3]; [12]
  Mean relative sublimation rate R: 0.0 %/hr
  Mean sublimation rate Rs1: 0.0 g/g/h
  Mean sublimation rate Rs2: 0.0 g/hr/m^2
  Sublimed solid fraction: 0.0%
[3]; [13]
  Mean relative sublimation rate R: 0.0375 %/hr
  Mean sublimation rate Rs1: 0.000375 g/g/h
  Mean sublimation rate Rs2: 1.593 g/hr/m^2
  Sublimed solid fraction: 0.20%
  −log Rs1: 3.42
[3]; [14]
  Mean relative sublimation rate R: 0.0506 %/hr
  Mean sublimation rate Rs1: 0.000515 g/g/h
  Mean sublimation rate Rs2: 2.192 g/hr/m^2
  Sublimed solid fraction: 0.27%
  −log Rs1: 3.29
[3]; [15]
  Mean relative sublimation rate R: 0.116 %/hr
  Mean sublimation rate Rs1: 0.00117 g/g/h
  Mean sublimation rate Rs2: 4.978 g/hr/m^2
  Sublimed solid fraction: 0.62%
  −log Rs1: 2.93
[3]; [16]
  Mean relative sublimation rate R: 0.769 %/hr
  Mean sublimation rate Rs1: 0.00764 g/g/h
  Mean sublimation rate Rs2: 32.26 g/hr/m^2
  Sublimed solid fraction: 4.1%
  −log Rs1: 2.12
[4]
  solubility in organic solvents: freely soluble
physchem; pH 11, water
  solubility: 5.5 mg/mL (≈ 32.1 mM)
[5]; 2 weeks
  Assay by HPLC: 100.5 % on dry basis
  Enantiomeric purity by HPLC (S-isomer): L.T. 0.1%
  ID by HPLC: Conforms
  IDD by HPLC: 1-Aminoindan: L.T. 0.02%
  IDD by HPLC: 1-Indanone: L.T. 0.02%
  IDD by HPLC: 3-PAIO: L.T. 0.02%
  IDD by HPLC: Any other: L.T. 0.02%
  IDD by HPLC: Total: L.T. 0.02%
  Water content by CKF: 0.04%
  Description: White solid
[5]; 4 weeks
  Assay by HPLC: 100.7 % on dry basis
  Enantiomeric purity by HPLC (S-isomer): L.T. 0.1%
  ID by HPLC: Conforms
  IDD by HPLC: 1-Aminoindan: L.T. 0.02%
  IDD by HPLC: 1-Indanone: L.T. 0.02%
  IDD by HPLC: 3-PAIO: L.T. 0.02%
  IDD by HPLC: Any other: L.T. 0.02%
  IDD by HPLC: Total: L.T. 0.02%
  Water content by CKF: 0.03%
  Description: White solid
[5]; Start (t = 0)
  Assay by HPLC: 100.1 % on dry basis
  Enantiomeric purity by HPLC (S-isomer): L.T. 0.1%
  ID by HPLC: Conforms
  IDD by HPLC: 1-Aminoindan: L.T. 0.02%
  IDD by HPLC: 1-Indanone: L.T. 0.02%
  IDD by HPLC: 3-PAIO: L.T. 0.02%
  IDD by HPLC: Any other: L.T. 0.02%
  IDD by HPLC: Total: L.T. 0.02%
  Water content by CKF: 0.04%
  Description: White solid
[5]; Storage temperature +2-+8° C.
  Time limitation: One month
[6]
  hygroscopicity: not hygroscopic

## C#CCN[C@@H]1CCc2ccccc21 [rasagiline mesylate]
physchem; pH 3.3, water
  solubility: 570 mg/mL
physchem; pH 6.7, water
  solubility: 92 mg/mL

## C#CCN[C@@H]1CCc2ccccc21.C#CCN[C@@H]1CCc2ccccc21.O=C(O)C(O)C(O)C(=O)O [Dry GA-18062]
[7]; 2 weeks
  Chromatographic purity by HPLC: 1-Aminoindan: L.T. 0.03%
  Chromatographic purity by HPLC: Any other: L.T. 0.03%
  Description: White
  ID by HPLC: Conforms
  L.O.D.: 0.16%
  S-isomer by HPLC: L.T. 0.3%
[7]; 4 weeks
  Chromatographic purity by HPLC: 1-Aminoindan: L.T. 0.03%
  Chromatographic purity by HPLC: Any other: L.T. 0.03%
  Description: White
  ID by HPLC: Conforms
  L.O.D.: 0.03%
  S-isomer by HPLC: L.T. 0.3%
[7]; Start (t = 0)
  Chromatographic purity by HPLC: 1-Aminoindan: L.T. 0.03%
  Chromatographic purity by HPLC: Any other: L.T. 0.03%
  Description: White
  ID by HPLC: Conforms
  L.O.D.: 0.03%
  S-isomer by HPLC: L.T. 0.3%
[7]; Storage temperature R.T.
  Time limitation: One month

## C#CCNC1CCc2ccccc21 (racemic) [Rac.PAI oil, N-propargyl-1-aminoindan, reference compound]
[3]; [17]
  Mean relative sublimation rate R: 0.0 %/hr
  Mean sublimation rate Rs1: 0.0 g/g/h
  Mean sublimation rate Rs2: 0.0 g/hr/m^2
  Sublimed solid fraction: 0.0%
[3]; [18]
  Mean relative sublimation rate R: 0.0 %/hr
  Mean sublimation rate Rs1: 0.0 g/g/h
  Mean sublimation rate Rs2: 0.0 g/hr/m^2
  Sublimed solid fraction: 0.0%
[3]; [19]
  Mean relative sublimation rate R: 0.08 %/hr
  Mean sublimation rate Rs2: 3.537 g/hr/m^2
  Sublimed solid fraction: 0.25%
  −log Rs1: 3.08
[3]; Ex. 23, oil, 2-3 mbar, 22 °C, 3.0 hr, listed as racemic PAI
  Mean sublimation rate Rs1: 0.000833 g/g/h
[3]; [20]
  Mean relative sublimation rate R: 2.5 %/hr
  Mean sublimation rate Rs2: 101.16 g/hr/m^2
  Sublimed solid fraction: 3.25%
  −log Rs1: 1.60
[3]; Ex. 24, oil, 2-3 mbar, 60 °C, 1.3 hr, listed as racemic PAI
  Mean sublimation rate Rs1: 0.025 g/g/h
